Bounds are passed on as bounds.

The target in this experiment is T1, TBK1 (Homo sapiens, UniProt Q9UHD2).
T1 construct: purchased Promega (Invitrogen is also named in the same bracket) V4158; PR8031B; V3991 (not assigned to the two kinases)
T1 sequence (Q9UHD2 1-729): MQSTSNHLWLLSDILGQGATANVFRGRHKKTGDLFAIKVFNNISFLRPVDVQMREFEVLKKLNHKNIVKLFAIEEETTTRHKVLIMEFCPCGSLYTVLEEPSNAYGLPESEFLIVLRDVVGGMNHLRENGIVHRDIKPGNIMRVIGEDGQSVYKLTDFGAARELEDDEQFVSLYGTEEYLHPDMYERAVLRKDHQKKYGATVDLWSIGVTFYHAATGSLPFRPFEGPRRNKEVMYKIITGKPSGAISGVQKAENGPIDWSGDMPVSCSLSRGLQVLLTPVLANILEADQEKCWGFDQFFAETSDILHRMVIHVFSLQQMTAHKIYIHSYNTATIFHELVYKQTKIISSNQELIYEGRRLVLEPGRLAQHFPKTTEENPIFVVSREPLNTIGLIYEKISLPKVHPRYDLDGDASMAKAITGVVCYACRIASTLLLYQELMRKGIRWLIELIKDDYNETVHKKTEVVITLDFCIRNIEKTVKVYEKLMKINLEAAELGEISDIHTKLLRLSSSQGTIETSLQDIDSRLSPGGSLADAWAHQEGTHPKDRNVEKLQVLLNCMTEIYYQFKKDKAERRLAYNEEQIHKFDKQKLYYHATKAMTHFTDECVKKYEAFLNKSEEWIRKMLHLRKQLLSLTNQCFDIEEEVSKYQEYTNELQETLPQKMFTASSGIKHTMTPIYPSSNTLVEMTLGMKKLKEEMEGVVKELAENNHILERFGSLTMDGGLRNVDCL
The experiment in a line: ADP-Glo Kinase Assay, inhibition activity on TBK1. It is filed as biochemical. Here is the method:
Inhibition activities on IKKϵ and TBK1 were evaluated using the compounds of Examples 1 to 250.
The inhibition activities on IKKϵ and TBK1 were measured by a luminometer, IKKϵ/TBK1 Kinase Enzyme System (Promega, Ca# V4158; Invitrogen, PR8031B, Promega, Ca# V3991) and ADP-Glo Kinase Assay using ADP-Glo™ Kinase Analysis Kit (Promega, Ca# V9101) and a kinase reaction buffer [40 mM Tris(pH 7.5), 20 mM MgCl2, 0.1 mg/mL BSA] in accordance with the manufacturer's protocol.
In turn, `O=C(NC1CCCC1)N1CC=C(c2c[nH]c3ncc(-c4ccc(C(=O)N5CCOCC5)cc4)cc23)CC1` [Example 75, N-cyclopentyl-4-(5-(4-(morpholine-4-carbonyl)phenyl)-1H-pyrrolo[2,3-b]pyridin-3-yl)-5,6-dihydropyridine-1(2H)-carboxamide] displayed an IC50 of 25 nM. Turning to `O=C(NC1CCCC1)N1CC=C(c2c[nH]c3ncc(-c4ccc(Cl)c(C(=O)N5CCOCC5)c4)cc23)CC1` [Example 76, 4-(5-(4-Chloro-3-(morpholine-4-carbonyl)phenyl)-1H-pyrrolo[2,3-b]pyridin-3-yl)-N-cyclopentyl-3,6-dihydropyridine-1(2H)-carboxamide 2,2,2-trifluoroacetate], the IC50 is 290 nM. On to `O=C(NC1CCCC1)N1CC=C(c2c[nH]c3ncc(-c4cc(Cl)cc(C(=O)N5CCOCC5)c4)cc23)CC1` [Example 77, 4-(5-(3-Chloro-5-(morpholine-4-carbonyl)phenyl)-1H-pyrrolo[2,3-b]pyridin-3-yl)-N-cyclopentyl-3,6-dihydropyridine-1(2H)-carboxamide 2,2,2-trifluoroacetate], for which half-maximal inhibition (IC50) required 250 nM. As to `COc1ccc(-c2cnc3[nH]cc(C4=CCN(C(=O)NC5CCOC5)CC4)c3c2)cc1OC` (stereo not shown) [Example 81, 4-(5-(3,4-Dimethoxyphenyl)-1H-pyrrolo[2,3-b]pyridin-3-yl)-N-(tetrahydrofuran-3-yl)-5,6-dihydropyridine-1(2H)-carboxamide], the concentration for half-maximal inhibition (IC50) is 21 nM.

Turning to `CS(=O)(=O)c1ccc(-c2cnc3[nH]cc(C4=CCN(C(=O)NC5CCOC5)CC4)c3c2)cc1` (stereo not shown) [Example 82, 4-(5-(4-(Methylsulfonyl)phenyl)-1H-pyrrolo[2,3-b]pyridin-3-yl)-N-(tetrahydrofuran-3-yl)-5,6-dihydropyridine-1(2H)-carboxamide], the IC50 was 35 nM. Molecule `CN1CCN(Cc2ccc(-c3cnc4[nH]cc(C5=CCN(C(=O)NC6CCOC6)CC5)c4c3)s2)CC1` (stereo not shown) [Example 83, 4-(5-(5-((4-Methylpiperazin-1-yl)methyl)thiophen-2-yl)-1H-pyrrolo[2,3-b]pyridin-3-yl)-N-(tetrahydrofuran-3-yl)-5,6-dihydropyridine-1(2H)-carboxamide] had an IC50 of 13 nM.

As for `O=C(NC1CCOC1)N1CC=C(c2c[nH]c3ncc(-c4ccc(CN5CCOCC5)s4)cc23)CC1` (stereo not shown) [Example 84, 4-(5-(5-(Morpholinomethyl)thiophen-2-yl)-1H-pyrrolo[2,3-b]pyridin-3-yl)-N-(tetrahydrofuran-3-yl)-5,6-dihydropyridine-1(2H)-carboxamide], it took 16 nM to reach half-maximal inhibition (IC50). In turn, `COc1ccc(-c2cnc3[nH]cc(C4=CCN(C(=O)NN5CCCC5)CC4)c3c2)cc1OC` [Example 85, 4-(5-(3,4-Dimethoxyphenyl)-1H-pyrrolo[2,3-b]pyridin-3-yl)-N-(pyrrolidin-1-yl)-5,6-dihydropyridine-1(2H)-carboxamide 2,2,2-trifluoroacetate] had an IC50 of 110 nM. The result for `COc1ccc(-c2cnc3[nH]cc(C4=CCN(C(=O)NC5CCCC5)CC4C)c3c2)cc1OC` (stereo not shown) [Example 120, N-cyclopentyl-4-(5-(3,4-dimethoxyphenyl)-1H-pyrrolo[2,3-b]pyridin-3-yl)-5-methyl-5,6-dihydropyridine-1(2H)-carboxamide] reads 84 nM; that for `CC1CN(C(=O)NC2CCCC2)CC=C1c1c[nH]c2ncc(-c3ccc(S(N)(=O)=O)cc3)cc12` (stereo not shown) [Example 124, N-cyclopentyl-5-methyl-4-(5-(4-sulfamoylphenyl)-1H-pyrrolo[2,3-b]pyridin-3-yl)-5,6-dihydropyridine-1(2H)-carboxamide], 51 nM.

With `CCC1CN(C(=O)NC2CCCC2)CC=C1c1c[nH]c2ncc(-c3ccc(CN4CCOCC4)s3)cc12` (stereo not shown) [Example 128, N-cyclopentyl-5-ethyl-4-(5-(5-(morpholinomethyl)thiophen-2-yl)-1H-pyrrolo[2,3-b]pyridin-3-yl)-5,6-dihydropyridine-1(2H)-carboxamide], 71 nM corresponded to half-maximal inhibition (IC50). For `COc1ccc(-c2cnc3[nH]cc(C4=C(C)CN(C(=O)NC5CCCC5)CC4)c3c2)cc1OC` [Example 129, N-cyclopentyl-4-(5-(3,4-dimethoxyphenyl)-1H-pyrrolo[2,3-b]pyridin-3-yl)-3-methyl-5,6-dihydropyridine-1(2H)-carboxamide] the value was 240 nM; for `CC1=C(c2c[nH]c3ncc(-c4ccc(S(C)(=O)=O)cc4)cc23)CCN(C(=O)NC2CCCC2)C1` [Example 130, N-cyclopentyl-3-methyl-4-(5-(4-(methylsulfonyl)phenyl)-1H-pyrrolo[2,3-b]pyridin-3-yl)-5,6-dihydropyridine-1(2H)-carboxamide], 550 nM. For `CC1=C(c2c[nH]c3ncc(-c4ccc(CN5CCOCC5)s4)cc23)CCN(C(=O)NC2CCCC2)C1` [Example 131, N-cyclopentyl-3-methyl-4-(5-(5-(morpholinomethyl)thiophen-2-yl)-1H-pyrrolo[2,3-b]pyridin-3-yl)-5,6-dihydropyridine-1(2H)-carboxamide] the value was 220 nM. Turning to `CS(=O)(=O)c1ccc(-c2cnc3[nH]cc(C4=C(F)CN(C(=O)NC5CCCC5)CC4)c3c2)cc1` [Example 132, N-cyclopentyl-3-fluoro-4-(5-(4-(methylsulfonyl)phenyl)-1H-pyrrolo[2,3-b]pyridin-3-yl)-5,6-dihydropyridine-1(2H)-carboxamide], it took 250 nM to reach half-maximal inhibition (IC50). In the case of `COc1ccc(-c2cnc3[nH]cc(C4=C(F)CN(C(=O)NC5CCCC5)CC4)c3c2)cc1OC` [Example 133, N-cyclopentyl-4-(5-(3,4-dimethoxyphenyl)-1H-pyrrolo[2,3-b]pyridin-3-yl)-3-fluoro-5,6-dihydropyridine-1(2H)-carboxamide], the IC50 amounted to 220 nM. `CCOC(=O)N1CC=C(c2c[nH]c3ncccc23)CC1` [Example 135, Ethyl 4-(1H-pyrrolo[2,3-b]pyridin-3-yl)-5,6-dihydropyridine-1(2H)-carboxylate] gave an IC50 of 1100 nM.

For the molecule `CCCCCOC(=O)N1CC=C(c2c[nH]c3ncccc23)CC1` [Example 136, Pentyl 4-(1H-pyrrolo[2,3-b]pyridin-3-yl)-5,6-dihydropyridine-1(2H)-carboxylate], half-maximal inhibition (IC50) required 10600 nM. Turning to `CCCOC(=O)N1CC=C(c2c[nH]c3ncccc23)CC1` [Example 137, Propyl 4-(1H-pyrrolo[2,3-b]pyridin-3-yl)-5,6-dihydropyridine-1(2H)-carboxylate], the IC50 amounted to 440 nM. `CCCCOC(=O)N1CC=C(c2c[nH]c3ncccc23)CC1` [Example 138, Butyl 4-(1H-pyrrolo[2,3-b]pyridin-3-yl)-5,6-dihydropyridine-1(2H)-carboxylate] yielded an IC50 of 5200 nM. The result for `CC(C)OC(=O)N1CC=C(c2c[nH]c3ncccc23)CC1` [Example 139, Isopropyl 4-(1H-pyrrolo[2,3-b]pyridin-3-yl)-5,6-dihydropyridine-1(2H)-carboxylate] reads 320 nM. For the molecule `O=C(OC1CCCC1)N1CC=C(c2c[nH]c3ncccc23)CC1` [Example 140, Cyclopentyl 4-(1H-pyrrolo[2,3-b]pyridin-3-yl)-3,6-dihydropyridine-1(2H)-carboxylate], the 50% inhibitory concentration (IC50) turned out to be 310 nM. Take `CCC(C)OC(=O)N1CC=C(c2c[nH]c3ncccc23)CC1` (stereo not shown) [Example 141, sec-Butyl 4-(1H-pyrrolo[2,3-b]pyridin-3-yl)-5,6-dihydropyridine-1(2H)-carboxylate]: the IC50 was 500 nM. Consider `CCC(CC)OC(=O)N1CC=C(c2c[nH]c3ncccc23)CC1` [Example 142, Pentan-3-yl 4-(1H-pyrrolo[2,3-b]pyridin-3-yl)-5,6-dihydropyridine-1(2H)-carboxylate], for which 3000 nM corresponded to half-maximal inhibition (IC50). For `O=C(OC1CCCCC1)N1CC=C(c2c[nH]c3ncccc23)CC1` [Example 143, Cyclohexyl 4-(1H-pyrrolo[2,3-b]pyridin-3-yl)-5,6-dihydropyridine-1(2H)-carboxylate] the value was 1000 nM; for `COc1ccc(-c2cnc3[nH]cc(C4=CCN(C(=O)OC5CCCC5)CC4)c3c2)cc1OC` [Example 144, Cyclopentyl 4-(5-(3,4-dimethoxyphenyl)-1H-pyrrolo[2,3-b]pyridin-3-yl)-5,6-dihydropyridine-1(2H)-carboxylate], 460 nM. `CC(C)OC(=O)N1CC=C(c2c[nH]c3ncc(-c4cccc(S(N)(=O)=O)c4)cc23)CC1` [Example 146, Isopropyl 4-(5-(3-sulfamoylphenyl)-1H-pyrrolo[2,3-b]pyridin-3-yl)-5,6-dihydropyridine-1(2H)-carboxylate] yielded an IC50 above 10000 nM.

On to `COc1ccc(-c2cnc3[nH]cc(C4=CCN(C(=O)OC(C)C)CC4)c3c2)cc1OC` [Example 147, Isopropyl 4-(5-(3,4-dimethoxyphenyl)-1H-pyrrolo[2,3-b]pyridin-3-yl)-5,6-dihydropyridine-1(2H)-carboxylate], for which the IC50 came out at 110 nM.

(Values after US10239873B2, “7-azaindole or 4,7-diazaindole derivatives as IKKϵ epsilon and TBK1 inhibitor and pharmaceutical composition comprising same” (GREEN CROSS CORPORATION, priority 2015, dated 2019).)
